Laboratory results as given in PMC12187842, “A novel molecule targeting neutrophil-mediated B-1a cell trogocytosis attenuates sepsis-induced acute lung injury” (Frontiers in Immunology, 2025).

Test system: CLP-induced sepsis in C57BL/6 mice
Experiment: Lung myeloperoxidase activity in CLP mice
Type: in vivo, mouse
Conditions: C11 10 mg/kg i.p. once after CLP (Figure 5 legend: 10 μg/kg); 20 h; n = 5-7/group; vs. CLP vehicle
Excerpt: Mice were anesthetized with 2% isoflurane in oxygen, and sepsis was induced via cecal ligation and puncture (CLP) ([26]). A 1-cm midline abdominal incision was made to expose the cecum, which was ligated 1-cm proximal to its end using a 4-0 silk suture. The cecum then was perforated with a single through-and-through puncture using a 22-gauge needle, positioned midway between the ligation and the tip of the cecum. A small amount of fecal material was gently extruded from the perforation sites to confirm the patency of the punctures, and the cecum was subsequently returned to the peritoneal cavity. Following abdominal closure, resuscitation was provided via subcutaneous (s.c.) injection of 500 µL normal saline. Postoperative analgesia was administered with a single dose of 0.1 mg/kg buprenorphine. […]
Approximately 50 to 100 mg of septic lung tissue, previously snap-frozen in liquid nitrogen and pulverized into a fine powder, was homogenized in potassium phosphate (KPO4) buffer containing 0.5% hexadecyltrimethylammonium bromide (HTAB; MilliporeSigma, Burlington, MA). […] The enzymatic reaction was monitored by measuring light absorbance at 460 nm over a five-minute period. MPO activity was expressed as units per gram of tissue, where one unit was defined as the change in absorbance per minute.

Q: Which “lung MPO activity” value does the source give for 126-ELKNRTVSWFS-136 [Compound C11] here?
A: Its value is “attenuated”.
